Measured values taken from patent publication US11485728B2, “Small molecules for the treatment of autoimmune diseases and cancer” (Athos Therapeutics, Inc., priority 2020, dated 2022).

How the values were obtained:
[1] = Dosing formulation stability (physical, potency, impurity profile); format: physicochemical; conditions: for Conc. (potency) / Observation (physical state): dosing formulation
Protocol: 5 mg/mL of test compound was formulated with 10% Dimethylacetamide (DMA), 30% Propylene Glycol, 35% PEG-300, 25% water (H2O). The formulation solution was stored at 4° C. and 25° C. The samples were retrieved at the following time points: 1 day, 3 days, 5 days, 7 days, 10 days and 14 days. The sample retrieved at each time point was examined visually observation of the physical state (texture and color) prior to sample preparation for analysis for physical stability. For chemical stability, the sample was diluted 1:250 dilution with acetonitrile (ACN) for potency analysis, and to 100 ug/mL final solution for impurity profile. The sample were prepared in triplication for potency analysis. The samples were then injected to HPLC for the determination of test compound concentration and its impurity profile. An Agilent 1260 Infinity II Lab LC Series HPLC system was used including 1260 Quat pump, 1260 vial autosampler, ICC column oven, and 1260 DAD WR detector. The chromatographic separation was achieved by a Phenomenex Synergi Polar RP column (150×4.6 mm, 4 μm, 80 Å). The flow rate was 1 mL/min and the detection was set at 254 nm. Injection volume was 10 uL, otherwise specified. The mobile phase consisted A, water with 0.1% trifluoroacetic acid and B, acetonitrile with 0.1% trifluoroacetic acid. […] For impurity profile, the gradient was A/B (99:1) from 0 minute; to A/B (1:99) from 0 to 15 minutes; A/B (1:99) from 15 to 18 minutes; to A/B (99:1) from 18 to 18.1 minutes; A/B (99:1) from 18.1 to 20 minutes. Data acquisition and peak integrations were obtained by OpenLAB CDS Version 2.4 (Agilent) operating with Windows (Microsoft).
Physical and chemical stability of dosing formulation lead to the investigation of potential impurities upon storage at various temperatures. The stability results can be used to assess the appropriate storage conditions and shelf life of a formulation, and can provide important information for drug formulation development, nonclinical, and clinical studies, especially on-going efficacy studies. The dosing formulation in these experiments contained 5 mg/mL test compound 1, with 10% Dimethylacetamide (DMA), 30% Propylene Glycol, 35% PEG-300, 25% water (H2O). The dosing formulation was stored at 4° C. and 25° C. The samples were retrieved at the following time points: 1 day and 3 days. The dosing formulation was diluted and analyzed for potency and impurity profile using reverse phase high pressure liquid chromatography. The impurity profile was described as the relative percent peak area of each peak detected.

colon cell line HCT = assay: Gene expression (RNA-Seq) of colon cancer cells treated with Compound 156; format: cell-based, Human
Protocol: Methods: RNA was extracted from HTC colon cancer cells that has been treated or not with Compound 156 and was sent to the Technology Center for Genomics & Bioinformatics at UCLA for sequencing.
Library construction and sequencing methods: Libraries for RNA-Seq were prepared with TruSeq Stranded mRNA Library Prep Kit. The workflow consists of mRNA enrichment and fragmentation. Cleaved RNA fragments are copied into first strand cDNA using reverse transcriptase and random primers. Strand specificity is achieved by replacing dTTP with dUTP and followed by second strand cDNA synthesis using DNA Polymerase I and RNase H. cDNA generation is followed by A-tailing, adaptor ligation and PCR amplification. Different adaptors were used for multiplexing samples in one lane. Sequencing was performed on Illumina NovaSeq 6000 for PE 2×50 run. Data quality check was done on Illumina SAV. Demultiplexing was performed with Illumina Bcl2fastq v2.19.1.403 software.
Bioinformatics methods: The reads were mapped by STAR 2.27a to Human GRCh38 genome and read counts per gene were quantified using Ensembl Human GRCh38.98 GTF file. Gene differential expression analysis and downstream gene enrichment analysis was performed at Athos Therapeutics. The DESeq2 R package was used for differential expression analysis. DESeq2 FDR cutoff: 0.05, DESeq2 Log 2FC cutoff: 1 (FC cutoff: 2). Gene enrichment analysis was performed using the Enrichr (https://maayanlab.cloud/Enrichr/enrich) and gprofiler (https://biit.cs.ut.ee/gprofiler/gost) platforms.

in vitro = conditions: PAMPA, 5 hours at RT
Description: Parallel artificial membrane permeability (PAMPA) assay is a non-cell based assay designed to predict in vivo biological membrane permeability of drugs in early stage of drug discovery. […] The Corning Gentest Pre-coated PAMPA plate system was designed by 96-well insert system with a 0.45 μm PVDF (polyvinylidene fluoride) filter plate which has been pre-coated with structured tri-layers of phospholipids (lipid/oil/lipid) and a matched receiver microplate.
Donor solutions of test compounds (300 μL, 20 μM in PBS/MeOH 90:10) were added to each well of the donor plate. 200 μL of PBS/MeOH 90:10 was added to each well of the acceptor plate. The acceptor plate was coupled with the donor plate and incubated for 5 hours at room temperature (RT) without agitation. In each plate, compounds were tested in triplicate. At the end of the incubation, drug concentration in the initial donor solution, acceptor and the donor wells were determined using LC/MS/MS. A five (5) points standard curve from 0.1 to 1000 nM for each test compound were prepared. Analyte samples were diluted to within standard curve concentration with ACN/H2O 50:50 prior analysis.
All samples were analyzed by electrospray ionization (ESI) liquid chromatograph/mass spectrometry (LC/MS) system utilizing Sciex 5500 quadropule ion trap (Qtrap) mass spectrometry with Shidmazu Nexera X2 UHPLC. The LC-MS/MS instrument monitored each of the test compound in the study based of their respective mass-to-charge (m/z) transitions and MS parameters. Chromatographic separation was achieved on Phenomenex Luna C18 column (50×2.0 mm, 3 μm particle size) by using a gradient elution: mobile phase A contains 0.1% formic acid in water and mobile phase B contains 0.1% formic acid in acetonitrile; A/B (99:1) from 0 to 1 minutes; to A/B (1:99) from 1 to 4 minutes; A/B (1:99) from 4 to 8 minutes; to A/B (99:1) from 8 to 8.20 minutes; A/B (99:1) from 8.2 to 9 minutes. The flow rate was 0.4 mL/min and the column temperature was maintained at 35° C. and autosampler temperature at 4° C. For detection, the electrospray ionization operated in the positive mode using multiple reaction monitoring (MRM).
Data acquisition, and peak integrations were obtained by Analyst® Version 1.7.1 (Sciex) operating with Windows® (Microsoft). The standard curve regressions and sample concentrations were generated and calculated by Analyst®. Concentrations in the sample solutions were determined based on the measured peak area ratios from the response of the analyte to the internal standard with reference to the standard calibration curve. All sample calculations were calculated using a linear regression with 1/x^2 weighting (where x is the concentration of given calibration standard level).
Permeability of the test compounds was calculated using the following formula:
The permeability of compounds was evaluated with the parallel artificial membrane permeation assay (PAMPA) as an in vivo model of passive diffusion across a porous filter coated with a lipid/oil/lipid tri-layer artificial membrane. […] Donor solutions of test compounds (300 μL, 20 μM in PBS/MeOH 90:10) were added to each well of the donor plate. 200 μL of PBS/MeOH 90:10 was added to each well of the acceptor plate. The acceptor plate was coupled with the donor plate and incubated for 5 hours at room temperature (RT) without agitation. In each plate, compounds were tested in triplicate. At the end of the incubation, drug concentration in the initial donor solution, acceptor and the donor wells were determined using LC/MS/MS. Permeability of test compounds was calculated based on the formula described in the General Procedures above. The PAMPA permeability classification criteria are categorized into three (3) classes with a high (Pe≥1.5×10−6 cm/s), intermediate (5.5×10−8<Pe<1.5×10−6 cm/s), and low (Pe<5.5×10−8 cm/s) permeability.

[2] = cell cycle pathway, colon cell line HCT
[3] = p53 pathway, colon cell line HCT

COc1cc2c(NC3CCS(=O)(=O)CC3)nc(N3CCC(F)(F)CC3)nc2cc1OCCCN1CCCC1 [Compound 1, 4-((2-(4,4-difluoropiperidin-1-yl)-6-methoxy-7-(3-(pyrrolidin-1-yl)propoxy)quinazolin-4-yl)amino)tetrahydro-2H-thiopyran 1,1-dioxide]
Impurity Peak RRT 0.978, relative percent peak area ([1]; 4° C., day 0): 0.14%
Peak RRT 1.00 (Compound 1), relative percent peak area ([1]; 4° C., day 0): 99.86%
Impurity Peak RRT 0.978, relative percent peak area ([1]; 4° C., day 1): 0.14%
Peak RRT 1.00 (Compound 1), relative percent peak area ([1]; 4° C., day 1): 99.86%
Impurity Peak RRT 0.978, relative percent peak area ([1]; 4° C., day 3): 0.31%
Peak RRT 1.00 (Compound 1), relative percent peak area ([1]; 4° C., day 3): 99.69%
Impurity Peak RRT 0.978, relative percent peak area ([1]; 25° C., day 0): 0.14%
Peak RRT 1.00 (Compound 1), relative percent peak area ([1]; 25° C., day 0): 99.86%
Impurity Peak RRT 0.978, relative percent peak area ([1]; 25° C., day 1): 0.13%
Peak RRT 1.00 (Compound 1), relative percent peak area ([1]; 25° C., day 1): 99.87%
Impurity Peak RRT 0.978, relative percent peak area ([1]; 25° C., day 3): 0.30%
Peak RRT 1.00 (Compound 1), relative percent peak area ([1]; 25° C., day 3): 99.70%
Conc. (potency) ([1]; 4° C., day 0): 5560 µg/mL
Observation (physical state) ([1]; 4° C., day 0): Clear solution
Conc. (potency) ([1]; 4° C., day 1): 5570 µg/mL
Observation (physical state) ([1]; 4° C., day 1): Clear solution
Conc. (potency) ([1]; 4° C., day 3): 5650 µg/mL
Observation (physical state) ([1]; 4° C., day 3): Clear solution
Conc. (potency) ([1]; 25° C., day 0): 5560 µg/mL
Observation (physical state) ([1]; 25° C., day 0): Clear solution
Conc. (potency) ([1]; 25° C., day 1): 5470 µg/mL
Observation (physical state) ([1]; 25° C., day 1): Clear solution
Conc. (potency) ([1]; 25° C., day 3): 6090 µg/mL
Observation (physical state) ([1]; 25° C., day 3): Clear solution

COc1cc2c(NC3CCN(C(C)C)CC3)nc(-n3ccnc3)nc2cc1OCCCN1CCCC1 [Compound 156, 2-(1H-imidazol-1-yl)-N-(1-isopropylpiperidin-4-yl)-6-methoxy-7-(3-(pyrrolidin-1-yl)propoxy)quinazolin-4-amine]
Log2 Fold Change BUB1 (colon cell line HCT; [2]): −5.157
Log2 Fold Change BUB1B (colon cell line HCT; [2]): −4.7094
Log2 Fold Change CCNA2 (colon cell line HCT; [2]): −5.163
Log2 Fold Change CCNB1 (colon cell line HCT; [2]): −4.231
Log2 Fold Change CCNB2 (colon cell line HCT; [2]): −5.041
Log2 Fold Change CCNE2 (colon cell line HCT; [2]): −5.409
Log2 Fold Change CDC6 (colon cell line HCT; [2]): −4.121
Log2 Fold Change CDC7 (colon cell line HCT; [2]): −2.499
Log2 Fold Change CDC20 (colon cell line HCT; [2]): −4.826
Log2 Fold Change CDC25A (colon cell line HCT; [2]): −2.858
Log2 Fold Change CDC25C (colon cell line HCT; [2]): −5.142
Log2 Fold Change CDC45 (colon cell line HCT; [2]): −4.679
Log2 Fold Change CDK1 (colon cell line HCT; [2]): −4.779
Log2 Fold Change CDKN2C (colon cell line HCT; [2]): −5.14
Log2 Fold Change CHEK1 (colon cell line HCT; [2]): −1.994
Log2 Fold Change CHEK2 (colon cell line HCT; [2]): −2.186
Log2 Fold Change DBF4 (colon cell line HCT; [2]): −2.536
Log2 Fold Change E2F1 (colon cell line HCT; [2]): −4.309
Log2 Fold Change E2F2 (colon cell line HCT; [2]): −5.296
Log2 Fold Change ESPL1 (colon cell line HCT; [2]): −4.821
Log2 Fold Change MAD2L1 (colon cell line HCT; [2]): −4.388
Log2 Fold Change MCM2 (colon cell line HCT; [2]): −3.686
Log2 Fold Change MCM3 (colon cell line HCT; [2]): −2.599
Log2 Fold Change MCM4 (colon cell line HCT; [2]): −3.347
Log2 Fold Change MCM5 (colon cell line HCT; [2]): −4.183
Log2 Fold Change MCM6 (colon cell line HCT; [2]): −3.834
Log2 Fold Change MCM7 (colon cell line HCT; [2]): −3.817
Log2 Fold Change ORC1 (colon cell line HCT; [2]): −4.987
Log2 Fold Change ORC6 (colon cell line HCT; [2]): −3.9103
Log2 Fold Change PKMYT1 (colon cell line HCT; [2]): −3.971
Log2 Fold Change PLK1 (colon cell line HCT; [2]): −4.8821
Log2 Fold Change PTTG1 (colon cell line HCT; [2]): −2.317
Log2 Fold Change RBL1 (colon cell line HCT; [2]): −3.043
Log2 Fold Change SKP2 (colon cell line HCT; [2]): −2.823
Log2 Fold Change SMC1A (colon cell line HCT; [2]): −1.934
Log2 Fold Change TTK (colon cell line HCT; [2]): −4.824
Log2 Fold Change WEE1 (colon cell line HCT; [2]): −2.394
number of genes activated by p53 that were upregulated (colon cell line HCT; data not shown): > 80 genes
number of genes regulated by E2F-1 and E2F-4 that were downregulated (colon cell line HCT; data not shown): > 500 genes
Log2 Fold Change CCND1 (colon cell line HCT; [3]): 1.792
Log2 Fold Change CD82 (colon cell line HCT; [3]): 1.878
Log2 Fold Change CDKN1A (colon cell line HCT; [3]): 3.19
Log2 Fold Change FAS (colon cell line HCT; [3]): 2.667
Log2 Fold Change GADD45A (colon cell line HCT; [3]): 1.969
Log2 Fold Change MDM2 (colon cell line HCT; [3]): 3.166
Log2 Fold Change PMAIP1 (colon cell line HCT; [3]): 3.102
Log2 Fold Change RRM2B (colon cell line HCT; [3]): 2.678
Log2 Fold Change SERPINB5 (colon cell line HCT; [3]): 2.471
Log2 Fold Change SERPINE1 (colon cell line HCT; [3]): 3.232
Log2 Fold Change SESN1 (colon cell line HCT; [3]): 1.955
Log2 Fold Change SESN2 (colon cell line HCT; [3]): 2.19
Log2 Fold Change THBS1 (colon cell line HCT; [3]): 1.872
Log2 Fold Change TP53I3 (colon cell line HCT; [3]): 3.87
Log2 Fold Change ZMAT3 (colon cell line HCT; [3]): 3.367
genes related to cell cycle (colon cell line HCT; treated vs not treated): downregulated
p-53 related genes (colon cell line HCT; treated vs not treated): upregulated

COc1cc2c(NC3CCN(C(C)C)CC3)nc(N3CCC(F)(F)CC3)nc2cc1OCCCN1CCCC1 [Compound 400, 2-(4,4-difluoropiperidin-1-yl)-N-(1-isopropylpiperidin-4-yl)-6-methoxy-7-(3-(pyrrolidin-1-yl)propoxy)quinazolin-4-amine, reference compound]
Papp (in vitro; PAMPA permeability Classification, 20 μM donor): 0.055 to 1.5 ×10⁻⁶ cm/s
Papp (in vitro; Permeability, Pe, 20 μM donor in PBS/MeOH 90:10): 0.178 ×10⁻⁶ cm/s
